These results are taken from patent publication US9125913B2, “Bcl-2-selective apoptosis-inducing agents for the treatment of cancer and immune diseases” (AbbVie Inc., priority 2008, dated 2015).

The structures appear in SMILES notation.

The test concerns GST-Bcl-2. Nature of the test: TR-FRET binding assay, Bcl-2. To be noted: TR-FRET Ki values. In a few lines:
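Ki values come from Wang's competitive-binding equation applied to TR-FRET signal (excitation 340/35 nm; emission 520/525 nm F-Bak peptide, 495/510 nm Tb antibody). Protein, probe and antibody incubated with compound 3 h at room temperature; dilution series began at 50 μM as 2× stock in 10% DMSO.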
Background: TR-FRET usually uses a lanthanide donor and a delayed reading to cut background.
Turning to `Cc1ccc(S(=O)(=O)NC(=O)c2ccc(N3CCN(Cc4ccccc4-c4ccc(Cl)cc4)CC3)cc2Oc2ccccc2)cc1` [Example 61, 4-{4-[(4′-chloro-1,1′-biphenyl-2-yl)methyl]piperazin-1-yl}-N-[(4-methylphenyl)sulfonyl]-2-phenoxybenzamide], the “Binding selectivity ratio (Bcl-XL Ki/Bcl-2 Ki)” value (from here on “Binding selectivity ratio”) is recorded as above 12.6.

As to `O=C(NS(=O)(=O)c1ccc(-n2ncc([N+](=O)[O-])n2)cc1)c1ccc(N2CCN(Cc3ccccc3-c3ccc(Cl)cc3)CC2)cc1Oc1ccccc1` [Example 31, 4-{4-[(4′-chloro-1,1′-biphenyl-2-yl)methyl]piperazin-1-yl}-N-{[4-(4-nitro-2H-1,2,3-triazol-2-yl)phenyl]sulfonyl}-2-phenoxybenzamide], the “Binding selectivity ratio” value is on record as above 18.0.

Regarding `CN(C)CCNc1ccc(S(=O)(=O)NC(=O)c2ccc(N3CCN(Cc4ccccc4-c4ccc(Cl)cc4)CC3)cc2Oc2ccccc2)cc1[N+](=O)[O-]` [Example 153, 4-{4-[(4′-chloro-1,1′-biphenyl-2-yl)methyl]piperazin-1-yl}-N-[(4-{[2-(dimethylamino)ethyl]amino}-3-nitrophenyl)sulfonyl]-2-phenoxybenzamide], the “Binding selectivity ratio” value is 351.

Consider `CC1(C)CCC(CN2CCN(c3ccc(C(=O)NS(=O)(=O)c4ccc(NCC5CCC(F)(F)CC5)c([N+](=O)[O-])c4)c(Oc4cccc5[nH]cnc45)c3)CC2)=C(c2ccc(Cl)cc2)C1` [EXAMPLE 456, 2-(1H-benzimidazol-4-yloxy)-4-(4-{[2-(4-chlorophenyl)-4,4-dimethylcyclohex-1-en-1-yl]methyl}piperazin-1-yl)-N-[(4-{[(4,4-difluorocyclohexyl)methyl]amino}-3-nitrophenyl)sulfonyl]benzamide], for which the “Binding selectivity ratio” value was 53.991.

As for `CC(C)Oc1cc(-c2ccc(Cl)cc2)c(CN2CCN(c3ccc(C(=O)NS(=O)(=O)c4ccc(NCC5CCOCC5)c([N+](=O)[O-])c4)c(Oc4ccc5[nH]ccc5c4)c3)CC2)cn1` [EXAMPLE 330, 4-(4-{[4-(4-chlorophenyl)-6-isopropoxypyridin-3-yl]methyl}piperazin-1-yl)-2-(1H-indol-5-yloxy)-N-({3-nitro-4-[(tetrahydro-2H-pyran-4-ylmethyl)amino]phenyl}sulfonyl)benzamide], the “Binding selectivity ratio” value is above 8.8.

As to `CN1CCN(Nc2ccc(S(=O)(=O)NC(=O)c3ccc(N4CCN(CC5=C(c6ccc(Cl)cc6)CC(C)(C)CC5)CC4)cc3Oc3cccc4[nH]ccc34)cc2S(=O)(=O)C(F)(F)F)CC1` [EXAMPLE 215, 4-(4-{[2-(4-chlorophenyl)-4,4-dimethylcyclohex-1-en-1-yl]methyl}piperazin-1-yl)-2-(1H-indol-4-yloxy)-N-({4-[(4-methylpiperazin-1-yl)amino]-3-[(trifluoromethyl)sulfonyl]phenyl}sulfonyl)benzamide], the “Binding selectivity ratio” value is 120.8.

For `CC1(C)CCC(CN2CCN(c3ccc(C(=O)NS(=O)(=O)c4cnc(OC[C@@H]5CCN(C(CF)CF)C5)c(Cl)c4)c(Oc4cccc5[nH]ncc45)c3)CC2)=C(c2ccc(Cl)cc2)C1` [EXAMPLE 444, N-{[5-chloro-6-({(3R)-1-[2-fluoro-1-(fluoromethyl)ethyl]pyrrolidin-3-yl}methoxy)pyridin-3-yl]sulfonyl}-4-(4-{[2-(4-chlorophenyl)-4,4-dimethylcyclohex-1-en-1-yl]methyl}piperazin-1-yl)-2-(1H-indazol-4-yloxy)benzamide], the “Binding selectivity ratio” value was found to be 727.625.

For `CC1CC(=O)NN=C1c1ccc(S(=O)(=O)NC(=O)c2ccc(N3CCN(Cc4ccccc4-c4ccc(Cl)cc4)CC3)cc2Oc2ccccc2)cc1` (centres unmarked) [Example 29, 4-{4-[(4′-chloro-1,1′-biphenyl-2-yl)methyl]piperazin-1-yl}-N-{[4-(4-methyl-6-oxo-1,4,5,6-tetrahydropyridazin-3-yl)phenyl]sulfonyl}-2-phenoxybenzamide], the “Binding selectivity ratio” value is above 55.4.

In the case of `CC1(C)CCC(CN2CCN(c3ccc(C(=O)NS(=O)(=O)c4ccc(NCCCN5CCS(=O)(=O)CC5)c([N+](=O)[O-])c4)c(Oc4cccc5[nH]ccc45)c3)CC2)=C(c2ccc(Cl)cc2)C1` [EXAMPLE 295, 4-(4-{[2-(4-chlorophenyl)-4,4-dimethylcyclohex-1-en-1-yl]methyl}piperazin-1-yl)-N-[(4-{[3-(1,1-dioxidothiomorpholin-4-yl)propyl]amino}-3-nitrophenyl)sulfonyl]-2-(1H-indol-4-yloxy)benzamide], the “Binding selectivity ratio” value is 599.4.

As to `CN(C)CCCCNc1ccc(S(=O)(=O)NC(=O)c2ccc(N3CCN(Cc4ccccc4-c4ccc(Cl)cc4)CC3)cc2Oc2ccccc2)cc1[N+](=O)[O-]` [Example 156, 4-{4-[(4′-chloro-1,1′-biphenyl-2-yl)methyl]piperazin-1-yl}-N-[(4-{[4-(dimethylamino)butyl]amino}-3-nitrophenyl)sulfonyl]-2-phenoxybenzamide], the “Binding selectivity ratio” value is reported as 53.1.

Turning to `CC1(C)CCC(CN2CCN(c3ccc(C(=O)NS(=O)(=O)c4ccc(NCC5(C)COC5)c([N+](=O)[O-])c4)c(Oc4ccc5[nH]ccc5c4)c3)CC2)=C(c2ccc(Cl)cc2)C1` [EXAMPLE 264, 4-(4-{[2-(4-chlorophenyl)-4,4-dimethylcyclohex-1-en-1-yl]methyl}piperazin-1-yl)-2-(1H-indol-5-yloxy)-N-[(4-{[(3-methyloxetan-3-yl)methyl]amino}-3-nitrophenyl)sulfonyl]benzamide], the “Binding selectivity ratio” value is listed as above 2808.4.

Take `CC1(C)CCC(CN2CCN(c3ccc(C(=O)NS(=O)(=O)c4ccc(NCC5CCOCC5)c(S(=O)(=O)C(F)(F)F)c4)c(Oc4ccc5[nH]ccc5c4)c3)CC2)=C(c2ccc(Cl)cc2)C1` [EXAMPLE 304, 4-(4-{[2-(4-chlorophenyl)-4,4-dimethylcyclohex-1-en-1-yl]methyl}piperazin-1-yl)-2-(1H-indol-5-yloxy)-N-({4-[(tetrahydro-2H-pyran-4-ylmethyl)amino]-3-[(trifluoromethyl)sulfonyl]phenyl}sulfonyl)benzamide]: the “Binding selectivity ratio” value is listed as above 973.5.

As to `CN1CCC(COc2ccc(S(=O)(=O)NC(=O)c3ccc(N4CCN(CC5=C(c6ccc(Cl)cc6)CC(C)(C)CC5)CC4)cc3Oc3ccc4[nH]ccc4c3)cc2[N+](=O)[O-])CC1` [EXAMPLE 354, 4-(4-{[2-(4-chlorophenyl)-4,4-dimethylcyclohex-1-en-1-yl]methyl}piperazin-1-yl)-2-(1H-indol-5-yloxy)-N-({4-[(1-methylpiperidin-4-yl)methoxy]-3-nitrophenyl}sulfonyl)benzamide], the “Binding selectivity ratio” value came out at 148.8.

Turning to `O=C(NS(=O)(=O)c1ccc(NC2CCN(S(=O)(=O)c3cccc4cccnc34)CC2)c([N+](=O)[O-])c1)c1ccc(N2CCN(Cc3ccccc3-c3ccc(Cl)cc3)CC2)cc1Oc1ccccc1` [Example 158, 4-{4-[(4′-chloro-1,1′-biphenyl-2-yl)methyl]piperazin-1-yl}-N-[(3-nitro-4-{[1-(quinolin-8-ylsulfonyl)piperidin-4-yl]amino}phenyl)sulfonyl]-2-phenoxybenzamide], the “Binding selectivity ratio” value is listed as above 10.2.

Regarding `CN1CCN(CCNc2ccc(S(=O)(=O)NC(=O)c3ccc(N4CCN(CC5=C(c6ccc(Cl)cc6)CC(C)(C)CC5)CC4)cc3Oc3ccc4[nH]ccc4c3)cc2[N+](=O)[O-])CC1` [Example 95, 4-(4-{[2-(4-chlorophenyl)-4,4-dimethylcyclohex-1-en-1-yl]methyl}piperazin-1-yl)-2-(1H-indol-5-yloxy)-N-[(4-{[2-(4-methylpiperazin-1-yl)ethyl]amino}-3-nitrophenyl)sulfonyl]benzamide], the “Binding selectivity ratio” value came out at 261.7.

In the case of `CN1CCC(Oc2ccc(S(=O)(=O)NC(=O)c3ccc(N4CCN(CC5=C(c6ccc(Cl)cc6)CC(C)(C)CC5)CC4)cc3Oc3ccc4[nH]ccc4c3)cc2[N+](=O)[O-])CC1` [EXAMPLE 353, 4-(4-{[2-(4-chlorophenyl)-4,4-dimethylcyclohex-1-en-1-yl]methyl}piperazin-1-yl)-2-(1H-indol-5-yloxy)-N-({4-[(1-methylpiperidin-4-yl)oxy]-3-nitrophenyl}sulfonyl)benzamide], the “Binding selectivity ratio” value is on record as above 2260.0.

`CN1CCN(Nc2ccc(S(=O)(=O)NC(=O)c3ccc(N4CCN(CC5=C(c6ccc(Cl)cc6)CC(C)(C)CC5)CC4)cc3Oc3cccc4[nH]cnc34)cc2[N+](=O)[O-])CC1` [EXAMPLE 453, 2-(1H-benzimidazol-4-yloxy)-4-(4-{[2-(4-chlorophenyl)-4,4-dimethylcyclohex-1-en-1-yl]methyl}piperazin-1-yl)-N-({4-[(4-methylpiperazin-1-yl)amino]-3-nitrophenyl}sulfonyl)benzamide]: the “Binding selectivity ratio” value was found to be 363.04.

With `CC1(C)CCC(CN2CCN(c3ccc(C(=O)NS(=O)(=O)c4ccc(OCC5CCOCC5)c(C(N)=O)c4)c(Oc4ccc5[nH]ccc5c4)c3)CC2)=C(c2ccc(Cl)cc2)C1` [EXAMPLE 357, N-{[3-(aminocarbonyl)-4-(tetrahydro-2H-pyran-4-ylmethoxy)phenyl]sulfonyl}-4-(4-{[2-(4-chlorophenyl)-4,4-dimethylcyclohex-1-en-1-yl]methyl}piperazin-1-yl)-2-(1H-indol-5-yloxy)benzamide], the “Binding selectivity ratio” value is listed as above 493.9.

For the molecule `CC1(C)CCC(CN2CCN(c3ccc(C(=O)NS(=O)(=O)c4ccc(NCCC(F)(F)F)c([N+](=O)[O-])c4)c(Oc4cccc5[nH]ccc45)c3)CC2)=C(c2ccc(Cl)cc2)C1` [EXAMPLE 323, 4-(4-{[2-(4-chlorophenyl)-4,4-dimethylcyclohex-1-en-1-yl]methyl}piperazin-1-yl)-2-(1H-indol-4-yloxy)-N-({3-nitro-4-[(3,3,3-trifluoropropyl)amino]phenyl}sulfonyl)benzamide], the “Binding selectivity ratio” value is above 695.2.

`CC1(C)CCC(CN2CCN(c3ccc(C(=O)NS(=O)(=O)c4ccc(NCc5cncs5)c([N+](=O)[O-])c4)c(Oc4ccc5[nH]ccc5c4)c3)CC2)=C(c2ccc(Cl)cc2)C1` [EXAMPLE 288, 4-(4-{[2-(4-chlorophenyl)-4,4-dimethylcyclohex-1-en-1-yl]methyl}piperazin-1-yl)-2-(1H-indol-5-yloxy)-N-({3-nitro-4-[(1,3-thiazol-5-ylmethyl)amino]phenyl}sulfonyl)benzamide]: the “Binding selectivity ratio” value is reported as above 3730.9.
